# According to ChEMBL document CHEMBL5579900, “Enhanced Recognition Memory through Dual Modulation of Brain Carbonic Anhydrases and Cholinesterases” (J Med Chem, 2024):
# Tests used:
# Acetylcholinesterase = Acetylcholinesterase (Electrophorus electricus, UniProt O42275)
# Description: Inhibition of electric eel AChE by microplate reader based analysis
# Cholinesterase = Cholinesterase (Equus caballus, UniProt P81908)
# Description: Inhibition of equine serum BuChE by microplate reader based analysis
# [1] = target: Carbonic anhydrase 1 (Homo sapiens) (UniProt P00915)
# Description: Binding affinity to human carbonic anhydrase 1 assessed as activation constant by phenol red dye based stopped-flow method
# [2] = target: Carbonic anhydrase 2 (Homo sapiens) (UniProt P00918)
# Description: Binding affinity to human carbonic anhydrase 2 assessed as activation constant by phenol red dye based stopped-flow method
# [3] = target: Carbonic anhydrase 4 (Homo sapiens) (UniProt P22748)
# Chain of Carbonic anhydrase 4 (Homo sapiens) (P22748 whole entry): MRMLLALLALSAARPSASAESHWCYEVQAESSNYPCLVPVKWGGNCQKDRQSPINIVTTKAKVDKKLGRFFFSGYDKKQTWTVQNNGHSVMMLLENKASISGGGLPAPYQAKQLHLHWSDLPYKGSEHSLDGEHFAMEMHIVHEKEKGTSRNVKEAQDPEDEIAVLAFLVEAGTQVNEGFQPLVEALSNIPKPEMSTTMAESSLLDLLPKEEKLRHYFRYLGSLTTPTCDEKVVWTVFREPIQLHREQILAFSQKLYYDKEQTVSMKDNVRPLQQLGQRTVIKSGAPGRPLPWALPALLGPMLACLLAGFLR
# Description: Binding affinity to human carbonic anhydrase 4 assessed as activation constant by phenol red dye based stopped-flow method
# [4] = target: Carbonic anhydrase 5B, mitochondrial (Homo sapiens) (UniProt Q9Y2D0)
# Chain of Carbonic anhydrase 5B, mitochondrial (Homo sapiens) (Q9Y2D0 whole entry): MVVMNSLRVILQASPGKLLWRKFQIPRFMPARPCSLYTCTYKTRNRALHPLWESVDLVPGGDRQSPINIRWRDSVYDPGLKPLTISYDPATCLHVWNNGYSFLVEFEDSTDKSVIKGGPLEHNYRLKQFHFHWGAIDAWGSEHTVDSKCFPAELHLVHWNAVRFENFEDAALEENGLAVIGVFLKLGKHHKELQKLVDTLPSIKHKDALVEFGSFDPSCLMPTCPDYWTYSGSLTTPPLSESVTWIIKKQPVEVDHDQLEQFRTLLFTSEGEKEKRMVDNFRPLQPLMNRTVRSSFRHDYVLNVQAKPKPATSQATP
# Description: Binding affinity to human carbonic anhydrase 5B assessed as activation constant by phenol red dye based stopped-flow method
# [5] = target: Carbonic anhydrase 7 (Homo sapiens) (UniProt P43166)
# Chain of Carbonic anhydrase 7 (Homo sapiens) (P43166 whole entry): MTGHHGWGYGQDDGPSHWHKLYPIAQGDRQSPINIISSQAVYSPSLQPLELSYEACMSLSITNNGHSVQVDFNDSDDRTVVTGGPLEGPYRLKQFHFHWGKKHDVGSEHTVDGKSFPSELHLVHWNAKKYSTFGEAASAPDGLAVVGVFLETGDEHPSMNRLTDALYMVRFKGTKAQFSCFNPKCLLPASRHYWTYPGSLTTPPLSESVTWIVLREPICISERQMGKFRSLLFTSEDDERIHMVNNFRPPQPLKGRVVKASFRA
# Description: Binding affinity to human carbonic anhydrase 7 assessed as activation constant by phenol red dye based stopped-flow method
# Chain of Cholinesterase (P81908 whole entry): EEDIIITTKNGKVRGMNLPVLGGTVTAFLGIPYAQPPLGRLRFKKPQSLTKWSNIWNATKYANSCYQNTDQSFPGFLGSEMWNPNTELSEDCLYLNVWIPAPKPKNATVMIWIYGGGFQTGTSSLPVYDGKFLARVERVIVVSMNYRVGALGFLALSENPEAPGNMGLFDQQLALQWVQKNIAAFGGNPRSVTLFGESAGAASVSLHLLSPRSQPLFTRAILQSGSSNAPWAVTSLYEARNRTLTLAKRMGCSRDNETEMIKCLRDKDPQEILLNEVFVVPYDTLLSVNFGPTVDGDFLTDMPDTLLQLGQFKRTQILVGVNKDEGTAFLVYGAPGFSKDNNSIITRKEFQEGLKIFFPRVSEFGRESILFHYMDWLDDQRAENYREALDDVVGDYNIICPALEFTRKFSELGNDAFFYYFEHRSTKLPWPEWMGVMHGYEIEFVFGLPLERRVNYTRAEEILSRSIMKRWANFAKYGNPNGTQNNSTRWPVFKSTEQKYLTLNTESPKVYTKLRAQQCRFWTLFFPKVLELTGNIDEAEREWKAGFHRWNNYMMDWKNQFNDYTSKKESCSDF
# Chain of Acetylcholinesterase (O42275 whole entry): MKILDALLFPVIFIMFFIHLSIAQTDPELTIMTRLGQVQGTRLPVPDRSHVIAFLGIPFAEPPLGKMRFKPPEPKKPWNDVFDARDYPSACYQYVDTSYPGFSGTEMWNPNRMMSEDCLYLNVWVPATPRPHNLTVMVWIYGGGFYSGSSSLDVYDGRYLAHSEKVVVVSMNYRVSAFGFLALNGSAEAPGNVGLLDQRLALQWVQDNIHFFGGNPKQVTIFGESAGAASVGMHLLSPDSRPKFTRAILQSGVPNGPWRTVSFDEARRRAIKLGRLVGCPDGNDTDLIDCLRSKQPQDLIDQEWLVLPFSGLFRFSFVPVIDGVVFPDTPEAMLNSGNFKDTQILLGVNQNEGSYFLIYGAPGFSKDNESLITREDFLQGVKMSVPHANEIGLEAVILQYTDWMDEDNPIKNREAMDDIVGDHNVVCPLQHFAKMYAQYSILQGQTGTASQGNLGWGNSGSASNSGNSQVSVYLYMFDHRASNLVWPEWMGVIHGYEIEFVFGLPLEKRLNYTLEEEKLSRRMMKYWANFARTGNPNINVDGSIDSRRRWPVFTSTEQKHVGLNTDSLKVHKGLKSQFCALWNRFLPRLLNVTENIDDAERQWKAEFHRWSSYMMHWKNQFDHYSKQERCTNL
# Chain of Carbonic anhydrase 1 (Homo sapiens) (P00915 2-261 limits assumed): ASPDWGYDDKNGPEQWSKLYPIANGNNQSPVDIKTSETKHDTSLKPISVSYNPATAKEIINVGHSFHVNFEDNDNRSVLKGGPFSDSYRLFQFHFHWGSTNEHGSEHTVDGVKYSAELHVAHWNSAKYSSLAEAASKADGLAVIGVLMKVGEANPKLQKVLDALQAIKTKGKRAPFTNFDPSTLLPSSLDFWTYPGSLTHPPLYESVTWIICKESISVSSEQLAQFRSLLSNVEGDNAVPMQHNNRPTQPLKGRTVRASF
SMILES,IC50 (Acetylcholinesterase),IC50 (Cholinesterase),KA ([1]; filed as activator),KA ([2]; filed as activator),KA ([3]; filed as activator),KA ([4]; filed as activator),KA ([5]; filed as activator),KA [1],KA [3],KA [5],KA [2],KA [4]
CC(C)(C)OC(=O)N[C@@H](Cc1c[nH]c2ccccc12)C(=O)NCCCCCNc1c2c(nc3ccccc13)CCCC2,108 nM,0.22 nM,1010 nM,2940 nM,5.67 µM,7.15 µM,1020 nM,–,–,–,–,–
N[C@@H](Cc1ccccc1)C(=O)NCCCCNc1c2c(nc3ccccc13)CCCC2,465 nM,9.5 nM,432 nM,565 nM,7.62 µM,4.79 µM,433 nM,–,–,–,–,–
CC(C)(C)OC(=O)N[C@@H](Cc1c[nH]c2ccccc12)C(=O)NCCCCCCNc1c2c(nc3ccccc13)CCCC2,15.9 nM,0.26 nM,1120 nM,2660 nM,4.46 µM,24.2 µM,1130 nM,–,–,–,–,–
COC(=O)[C@@H](N)Cc1ccc(OCCCCCCNc2c3c(nc4ccccc24)CCCC3)cc1,26.4 nM,2.7 nM,702 nM,295 nM,8.25 µM,6.16 µM,185 nM,–,–,–,–,–
CC(C)(C)OC(=O)N[C@@H](Cc1cn(C(=O)OC(C)(C)C)cn1)C(=O)NCCCCCNc1c2c(nc3ccccc13)CCCC2,141 nM,0.57 nM,–,11100 nM,–,9.05 µM,–,> 50000 nM,> 50 µM,> 50000 nM,–,–
CC(C)(C)OC(=O)N[C@@H](Cc1ccccc1)C(=O)NCCCCCCNc1c2c(nc3ccccc13)CCCC2,9.9 nM,0.091 nM,–,–,–,–,–,> 50000 nM,> 50 µM,> 50000 nM,> 50000 nM,> 50 µM
COC(=O)[C@H](CCCCNC(=O)OCc1ccccc1)NCCCCCNc1c2c(nc3ccccc13)CCCC2,12.4 nM,0.073 nM,3300 nM,1990 nM,19 µM,1.4 µM,1370 nM,–,–,–,–,–
COC(=O)[C@H](Cc1ccc(OCCCCCNc2c3c(nc4ccccc24)CCCC3)cc1)NC(=O)OC(C)(C)C,65.4 nM,> 15.3 nM,–,–,–,–,–,> 50000 nM,> 50 µM,> 50000 nM,> 50000 nM,> 50 µM
CC(C)(C)OC(=O)N[C@@H](Cc1c[nH]c2ccccc12)C(=O)NCCCCNc1c2c(nc3ccccc13)CCCC2,82.3 nM,0.21 nM,2620 nM,7650 nM,8.58 µM,8.64 µM,2630 nM,–,–,–,–,–
N[C@@H](Cc1c[nH]cn1)C(=O)NCCCCNc1c2c(nc3ccccc13)CCCC2,101 nM,4.1 nM,972 nM,199 nM,0.958 µM,1.47 µM,391 nM,–,–,–,–,–
N[C@@H](Cc1c[nH]c2ccccc12)C(=O)NCCCCCCNc1c2c(nc3ccccc13)CCCC2,2.4 nM,1.2 nM,876 nM,539 nM,0.541 µM,0.353 µM,79.8 nM,–,–,–,–,–
COC(=O)[C@@H](N)Cc1ccc(OCCCCCNc2c3c(nc4ccccc24)CCCC3)cc1,22.1 nM,0.048 nM,552 nM,372 nM,16.8 µM,1.73 µM,803 nM,–,–,–,–,–
COC(=O)[C@H](Cc1ccccc1)NCCCCCNc1c2c(nc3ccccc13)CCCC2,110 nM,3.8 nM,731 nM,247 nM,3.45 µM,5.32 µM,535 nM,–,–,–,–,–
NCCc1c[nH]cn1,–,–,2100 nM,–,25 µM,3.5 µM,37000 nM,–,–,–,> 100000 nM,–
N[C@@H](Cc1c[nH]c2ccccc12)C(=O)NCCCCNc1c2c(nc3ccccc13)CCCC2,145 nM,2.4 nM,542 nM,413 nM,3.12 µM,0.703 µM,289 nM,–,–,–,–,–
N[C@@H](Cc1c[nH]cn1)C(=O)NCCCCCCNc1c2c(nc3ccccc13)CCCC2,12.1 nM,5.2 nM,1050 nM,283 nM,3.56 µM,0.554 µM,82.8 nM,–,–,–,–,–
CC(C)(C)OC(=O)N[C@@H](Cc1cn(C(=O)OC(C)(C)C)cn1)C(=O)NCCCCNc1c2c(nc3ccccc13)CCCC2,122 nM,0.064 nM,–,12400 nM,–,–,–,> 50000 nM,> 50 µM,> 50000 nM,–,> 50 µM
N[C@@H](Cc1ccccc1)C(=O)NCCCCCCNc1c2c(nc3ccccc13)CCCC2,78 nM,2.7 nM,481 nM,157 nM,4.78 µM,4.64 µM,160 nM,–,–,–,–,–
N[C@@H](Cc1c[nH]c2ccccc12)C(=O)NCCCCCNc1c2c(nc3ccccc13)CCCC2,37.8 nM,1 nM,630 nM,119 nM,1.72 µM,0.936 µM,105 nM,–,–,–,–,–
c1ccc2c(NCCCCCNCCc3c[nH]cn3)c3c(nc2c1)CCCC3,60.2 nM,2.4 nM,439 nM,290 nM,1.28 µM,0.541 µM,439 nM,–,–,–,–,–
N[C@@H](CCCCNC(=O)OCc1ccccc1)C(=O)NCCCCCNc1c2c(nc3ccccc13)CCCC2,238 nM,0.33 nM,3530 nM,981 nM,3.61 µM,4.97 µM,2730 nM,–,–,–,–,–
CC(C)(C)OC(=O)N[C@@H](Cc1ccccc1)C(=O)NCCCCNc1c2c(nc3ccccc13)CCCC2,158 nM,0.38 nM,–,–,–,–,–,> 50000 nM,> 50 µM,> 50000 nM,> 50000 nM,> 50 µM
N[C@@H](Cc1c[nH]c2ccccc12)C(=O)NCCCNc1c2c(nc3ccccc13)CCCC2,58.9 nM,1.6 nM,1010 nM,833 nM,2.33 µM,1.96 µM,566 nM,–,–,–,–,–
COC(=O)[C@H](CCCCNC(=O)OCc1ccccc1)NCCCCCCNc1c2c(nc3ccccc13)CCCC2,35.6 nM,0.29 nM,2280 nM,2410 nM,20.2 µM,4.61 µM,2250 nM,–,–,–,–,–
CC(C)(C)OC(=O)N[C@@H](CCCCNC(=O)OCc1ccccc1)C(=O)NCCCCNc1c2c(nc3ccccc13)CCCC2,327 nM,0.16 nM,–,–,–,–,–,> 50000 nM,> 50 µM,> 50000 nM,> 50000 nM,> 50 µM
COC(=O)[C@H](Cc1ccc(OCCCCCCNc2c3c(nc4ccccc24)CCCC3)cc1)NC(=O)OC(C)(C)C,16 nM,0.11 nM,–,–,–,–,–,> 50000 nM,> 50 µM,> 50000 nM,> 50000 nM,> 50 µM
COC(=O)[C@H](Cc1c[nH]c2ccccc12)NCCCCCCNc1c2c(nc3ccccc13)CCCC2,23.3 nM,2.8 nM,436 nM,631 nM,2.23 µM,5.1 µM,637 nM,–,–,–,–,–
N[C@@H](CCCCNC(=O)OCc1ccccc1)C(=O)NCCCCNc1c2c(nc3ccccc13)CCCC2,250 nM,2.5 nM,3270 nM,1900 nM,9.73 µM,1.4 µM,975 nM,–,–,–,–,–
